Test results taken from ChEMBL document CHEMBL3872281, “A one-pot laccase-catalysed synthesis of coumestan derivatives and their anticancer activity” (Bioorg Med Chem, 2017).

Tests used:
[1] = Cytotoxicity against human TK10 cells assessed as cell growth inhibition after 48 hrs by SRB assay; format: functional; settings: TK-10, 48 h; for CC50: read-out: LC50 (the source's name)
[2] = Cytotoxicity against human UACC62 cells assessed as cell growth inhibition after 48 hrs by SRB assay; format: functional; settings: UACC-62, 48 h
[3] = Cytotoxicity against human MCF7 cells assessed as cell growth inhibition after 48 hrs by SRB assay; format: functional; settings: MCF7, 48 h; for CC50: read-out: LC50 (the source's name)
UACC-62 = experiment: Potency index, ratio of etoposide TGI to compound TGI for human UACC62 cells; format: functional
[4] = molecular target: T1, Arachidonate 5-lipoxygenase (Sus scrofa, UniProt K7GQZ4); experiment: Inhibition of 5-lipoxygenase in pig leukocytes using arachidonic acid as substrate; format: cell-based
T1 sequence (K7GQZ4 whole entry): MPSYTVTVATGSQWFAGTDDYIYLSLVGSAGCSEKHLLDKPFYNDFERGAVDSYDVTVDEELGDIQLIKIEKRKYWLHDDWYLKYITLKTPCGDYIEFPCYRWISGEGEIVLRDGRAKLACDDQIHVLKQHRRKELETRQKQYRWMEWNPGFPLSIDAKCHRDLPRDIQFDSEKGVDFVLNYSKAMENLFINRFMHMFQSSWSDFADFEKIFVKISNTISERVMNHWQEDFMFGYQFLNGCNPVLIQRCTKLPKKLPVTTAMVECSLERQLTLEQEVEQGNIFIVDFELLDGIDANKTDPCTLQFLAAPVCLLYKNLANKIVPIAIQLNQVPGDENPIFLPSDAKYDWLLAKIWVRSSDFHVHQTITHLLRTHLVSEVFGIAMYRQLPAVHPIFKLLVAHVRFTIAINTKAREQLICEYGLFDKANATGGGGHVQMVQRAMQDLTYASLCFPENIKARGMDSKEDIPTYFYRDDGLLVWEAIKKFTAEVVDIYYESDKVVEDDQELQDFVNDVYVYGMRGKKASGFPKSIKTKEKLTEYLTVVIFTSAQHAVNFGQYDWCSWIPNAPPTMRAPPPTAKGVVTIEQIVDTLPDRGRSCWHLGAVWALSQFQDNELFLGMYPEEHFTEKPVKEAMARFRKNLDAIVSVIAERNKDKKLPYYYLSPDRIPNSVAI

[5] = molecular target: T2, Arachidonate 5-lipoxygenase (Sus scrofa) (UniProt K7GQZ4); experiment: Potency index, ratio of coumestrol IC50 to compound IC50 for 5-lipoxygenase in pig leukocytes; format: cell-based
T2 sequence (whole entry): T1 sequence (K7GQZ4 whole entry)

For `O=c1oc2ccccc2c2oc3c(F)c(O)c(O)cc3c12`, the GI50 [1] was over 100 µM, the TGI [1] was over 100 µM and the CC50 [1] was over 100 µM. It also gave a GI50 [2] of 67.6 µM, an LC50 (concentration giving 50% net cell kill) [2] of over 100 µM and a TGI [2] of over 100 µM. For the same molecule, the GI50 [3] was 53.1 µM, the TGI [3] was over 100 µM and the CC50 [3] was over 100 µM.

In the case of `Cc1cccc(O)c1O`, the GI50 [1] is reported as 38.1 µM, the TGI [1] is reported as 75.8 µM and the CC50 [1] is reported as over 100 µM. For the same molecule, the GI50 [2] was 15.2 µM, the TGI [2] was 46.2 µM and the GI50 [3] was 27.3 µM. It also gave a TGI [3] of 64.3 µM and a CC50 [3] of over 100 µM.

With `COc1c(O)c(O)cc2c1oc1c3cc(C)ccc3oc(=O)c21` the GI50 [1] was 88.6 µM, the TGI [1] was over 100 µM and the CC50 [1] was over 100 µM. It also gave a GI50 [2] of 49.9 µM, an LC50 (concentration giving 50% net cell kill) [2] of over 100 µM and a TGI [2] of over 100 µM. The GI50 [3] was 65.8 µM, the TGI [3] was over 100 µM and the CC50 [3] was over 100 µM.

For `COc1cc([C@@H]2c3cc4c(cc3[C@@H](O[C@@H]3O[C@@H]5CO[C@@H](C)O[C@H]5[C@H](O)[C@H]3O)[C@H]3COC(=O)[C@H]23)OCO4)cc(OC)c1O` [ETOPOSIDE], the CC50 [1] was over 100 µM, the GI50 [2] was 0.89 µM and the GI50 [3] was 0.56 µM. It also gave a TGI [3] of over 100 µM and a CC50 [3] of over 100 µM.

`Oc1cccc(F)c1O` gave a GI50 [1] of 84.7 µM, a TGI [1] of over 100 µM and a CC50 [1] of over 100 µM. For the same molecule, the GI50 [2] was 35.2 µM, the TGI [2] was 78.4 µM and the GI50 [3] was 57.6 µM. For the same molecule, the TGI [3] was over 100 µM and the CC50 [3] was over 100 µM.

With `Cc1cc2oc(=O)c3c4cc(O)c(O)cc4oc3c2cc1C` the GI50 [1] was 53.3 µM, the TGI [1] was over 100 µM and the CC50 [1] was over 100 µM. It also gave a GI50 [2] of 38.3 µM, an LC50 (concentration giving 50% net cell kill) [2] of over 100 µM and a TGI [2] of 80.1 µM. The GI50 [3] was 46 µM, the TGI [3] was 86.3 µM and the CC50 [3] was over 100 µM.

Molecule `Cc1cc2oc(=O)cc(O)c2cc1C` has a GI50 [1] of over 100 µM, a TGI [1] of over 100 µM and a CC50 [1] of over 100 µM. The GI50 [2] was 80.5 µM, the LC50 (concentration giving 50% net cell kill) [2] was over 100 µM and the TGI [2] was over 100 µM. The GI50 [3] was 82.3 µM, the TGI [3] was over 100 µM and the CC50 [3] was over 100 µM.

In the case of `Cc1ccc2oc(=O)c3c4cc(O)c(O)c(C)c4oc3c2c1`, the GI50 [1] is reported as 48.8 µM, the TGI [1] is reported as over 100 µM and the CC50 [1] is reported as over 100 µM. For the same molecule, the GI50 [2] was 5.35 µM, the LC50 (concentration giving 50% net cell kill) [2] was 89.9 µM and the TGI [2] was 9.82 µM. It also gave a GI50 [3] of 7.96 µM, a TGI [3] of 78.2 µM and a CC50 [3] of over 100 µM. It also gave a Ratio (UACC-62) of 5.

`Cc1c(O)c(O)cc2c1oc1c3cc(Cl)ccc3oc(=O)c21` showed a GI50 [1] of 58.1 µM, a TGI [1] of over 100 µM and a CC50 [1] of over 100 µM. For the same molecule, the GI50 [2] was 39.7 µM, the LC50 (concentration giving 50% net cell kill) [2] was over 100 µM and the TGI [2] was 73.6 µM. It also gave a GI50 [3] of 63.1 µM, a TGI [3] of over 100 µM and a CC50 [3] of over 100 µM.

Work on `COc1c(O)c(O)cc2c1oc1c3ccccc3oc(=O)c21` yielded a GI50 [1] of over 100 µM, a TGI [1] of over 100 µM and a CC50 [1] of over 100 µM. It also gave a GI50 [2] of 67.6 µM, an LC50 (concentration giving 50% net cell kill) [2] of over 100 µM and a TGI [2] of over 100 µM. It also gave a GI50 [3] of 87.3 µM, a TGI [3] of over 100 µM and a CC50 [3] of over 100 µM.

In the case of `O=c1cc(O)c2ccccc2o1` [4-HYDROXYCOUMARINS], the GI50 [1] is reported as over 100 µM, the TGI [1] is reported as over 100 µM and the CC50 [1] is reported as over 100 µM. The GI50 [2] was 83.6 µM, the TGI [2] was over 100 µM and the GI50 [3] was 95.3 µM. The TGI [3] was over 100 µM and the CC50 [3] was over 100 µM.

For `Cc1c(O)c(O)cc2c1oc1c3ccccc3oc(=O)c21`, the GI50 [1] was over 100 µM, the TGI [1] was over 100 µM and the CC50 [1] was over 100 µM. The GI50 [2] was 55.6 µM, the LC50 (concentration giving 50% net cell kill) [2] was over 100 µM and the TGI [2] was over 100 µM. The GI50 [3] was 54.9 µM, the TGI [3] was over 100 µM and the CC50 [3] was over 100 µM.

Molecule `O=c1oc2ccc(Cl)cc2c2oc3cc(O)c(O)cc3c12` has a GI50 [1] of 53.4 µM, a TGI [1] of over 100 µM and a CC50 [1] of over 100 µM. For the same molecule, the GI50 [2] was 36.3 µM, the LC50 (concentration giving 50% net cell kill) [2] was over 100 µM and the TGI [2] was 68.6 µM. For the same molecule, the GI50 [3] was 47.5 µM, the TGI [3] was 89.8 µM and the CC50 [3] was over 100 µM.

`O=c1cc(O)c2cc(Cl)ccc2o1` showed a GI50 [1] of over 100 µM, a TGI [1] of over 100 µM and a CC50 [1] of over 100 µM. The GI50 [2] was 88.7 µM, the LC50 (concentration giving 50% net cell kill) [2] was over 100 µM and the TGI [2] was over 100 µM. For the same molecule, the GI50 [3] was 83.3 µM, the TGI [3] was over 100 µM and the CC50 [3] was over 100 µM.

For `O=c1oc2ccc(Cl)cc2c2oc3c(F)c(O)c(O)cc3c12`, the GI50 [1] was over 100 µM, the TGI [1] was over 100 µM and the CC50 [1] was over 100 µM. It also gave a GI50 [2] of 83.7 µM, an LC50 (concentration giving 50% net cell kill) [2] of over 100 µM and a TGI [2] of over 100 µM. It also gave a GI50 [3] of 70.3 µM, a TGI [3] of over 100 µM and a CC50 [3] of over 100 µM.

For `COc1c(O)c(O)cc2c1oc1c3cc(C)c(C)cc3oc(=O)c21`, the GI50 [1] was 26.8 µM, the TGI [1] was 66.4 µM and the CC50 [1] was over 100 µM. For the same molecule, the GI50 [2] was 18.1 µM, the LC50 (concentration giving 50% net cell kill) [2] was 75.3 µM and the TGI [2] was 46.7 µM. For the same molecule, the GI50 [3] was 29.5 µM, the TGI [3] was 95.4 µM and the CC50 [3] was over 100 µM.

Molecule `COc1cc(O)c2c(c1)oc(=O)c1c3cc(O)c(O)cc3oc21` [WEDELOLACTONE] has an IC50 [4] of 2.5 µM and a Ratio IC50 [5] of 40.

`Cc1cc2oc(=O)c3c4cc(O)c(O)c(C)c4oc3c2cc1C` gave a GI50 [1] of over 100 µM, a TGI [1] of over 100 µM and a CC50 [1] of over 100 µM. For the same molecule, the GI50 [2] was 67.6 µM, the LC50 (concentration giving 50% net cell kill) [2] was over 100 µM and the TGI [2] was over 100 µM. It also gave a GI50 [3] of 87.3 µM, a TGI [3] of over 100 µM and a CC50 [3] of over 100 µM.

Work on `Cc1ccc2oc(=O)c3c4cc(O)c(O)cc4oc3c2c1` yielded a GI50 [1] of 52 µM, a TGI [1] of over 100 µM and a CC50 [1] of over 100 µM. It also gave a GI50 [2] of 11.2 µM, an LC50 (concentration giving 50% net cell kill) [2] of 90.7 µM and a TGI [2] of 50.9 µM. The GI50 [3] was 54.7 µM, the TGI [3] was over 100 µM and the CC50 [3] was over 100 µM.

Molecule `Cc1cc2oc(=O)c3c4cc(O)c(O)c(F)c4oc3c2cc1C` has a GI50 [1] of over 100 µM, a TGI [1] of over 100 µM and a CC50 [1] of over 100 µM. The GI50 [2] was 91.8 µM, the LC50 (concentration giving 50% net cell kill) [2] was over 100 µM and the TGI [2] was over 100 µM. For the same molecule, the GI50 [3] was 77.7 µM, the TGI [3] was over 100 µM and the CC50 [3] was over 100 µM.

With `O=c1oc2ccccc2c2oc3cc(O)c(O)cc3c12` the GI50 [1] was 28.7 µM, the TGI [1] was 88.4 µM and the CC50 [1] was over 100 µM. The GI50 [2] was 33.3 µM, the LC50 (concentration giving 50% net cell kill) [2] was 90.6 µM and the TGI [2] was 61.9 µM. For the same molecule, the GI50 [3] was 39.4 µM, the TGI [3] was 77.3 µM and the CC50 [3] was over 100 µM.

Molecule `Cc1ccc2oc(=O)cc(O)c2c1` has a GI50 [1] of over 100 µM, a TGI [1] of over 100 µM and a CC50 [1] of over 100 µM. For the same molecule, the GI50 [2] was 84.7 µM, the TGI [2] was over 100 µM and the GI50 [3] was 84.4 µM. For the same molecule, the TGI [3] was over 100 µM and the CC50 [3] was over 100 µM.

In the case of `COc1cccc(O)c1O` [3-METHOXYCATECHOL], the GI50 [1] is reported as 51.6 µM, the TGI [1] is reported as 97 µM and the CC50 [1] is reported as over 100 µM. The GI50 [2] was 23.6 µM, the TGI [2] was 50.3 µM and the GI50 [3] was 27.6 µM. For the same molecule, the TGI [3] was 60.7 µM and the CC50 [3] was 93.8 µM.

Work on `Oc1ccccc1O` [CATECHOL] yielded a GI50 [1] of 68 µM, a TGI [1] of over 100 µM and a CC50 [1] of over 100 µM. For the same molecule, the GI50 [2] was 45 µM, the TGI [2] was over 100 µM and the GI50 [3] was 52.4 µM. It also gave a TGI [3] of over 100 µM and a CC50 [3] of over 100 µM.
